What was measured:
[1] = xn = mol fraction of the nth substance listed; settings: 101 kPa, Liquid; for speed of sound: Frequency=2 MHz, Linear variable-path acoustic interferometer; for mass density: Pycnometric method
[2] = 101 kPa, Liquid; for speed of sound: Frequency=2 MHz, Linear variable-path acoustic interferometer; for mass density: Pycnometric method

CCN(CC)CCO [(diethylamino)ethanol] + CCCCO
[1]
Settings | mass density, 293.15 K [kg/m3] | mass density, 303.15 K [kg/m3] | mass density, 313.15 K [kg/m3] | speed of sound, 293.15 K [m/s] | speed of sound, 303.15 K [m/s] | speed of sound, 313.15 K [m/s]
x1 = 0.0902 | 820.03 | 812.47 | 805.16 | 1276.3 | 1239.8 | 1204.1
x1 = 0.1941 | 831.16 | 823.43 | 815.92 | 1291.2 | 1254.8 | 1218.7
x1 = 0.2938 | 840.82 | 832.89 | 825.11 | 1304.3 | 1267.7 | 1231
x1 = 0.4045 | 850.42 | 842.23 | 834.18 | 1317.8 | 1281 | 1243.5
x1 = 0.5081 | 858.32 | 849.91 | 841.63 | 1329.2 | 1292.2 | 1254
x1 = 0.6088 | 865.03 | 856.45 | 847.98 | 1339.3 | 1302.1 | 1263.3
x1 = 0.7129 | 871.14 | 862.42 | 853.78 | 1348.6 | 1311.2 | 1271.9
x1 = 0.8131 | 876.29 | 867.39 | 858.66 | 1356.4 | 1318.7 | 1278.8
x1 = 0.9037 | 880.46 | 871.28 | 862.4 | 1362.2 | 1324 | 1283.2
x1 = 1 | 884.37 | 874.93 | 865.62 | 1366.5 | 1327.3 | 1285

CCN(CC)CCO [(diethylamino)ethanol]
[2]
Settings | mass density [kg/m3] | speed of sound [m/s]
293.15 K | 884.37 | 1366.5
303.15 K | 874.93 | 1327.3
313.15 K | 865.62 | 1285

CCCCO [butan-1-ol]
[2]
Settings | mass density [kg/m3] | speed of sound [m/s]
293.15 K | 809.53 | 1261.9
303.15 K | 802 | 1224.7
313.15 K | 794.7 | 1188.8
